Values of other authors, collected in patent US11246836B2, “Intramuscular depot of decoquinate compositions and method of prophylaxis and treatment thereof” (BLUELIGHT PHARMATECH CO., LTD., priority 2018, dated 2022).
≈ marks a conversion by molar mass, not a printed value.

What was measured:
Plasmodium berghei ANKA = conditions: single dose of 5 mg/kg suspended in soybean oil
P. yoelii = conditions: 50 mg/kg in a corn oil emulsion

minimum inhibitory concentration (MIC) (Plasmodium): 5.12 ng/mL (≈ 0.0123 µM)
SMILES: CCCCCCCCCCOc1cc2c(=O)c(C(=O)OCC)c[nH]c2cc1OCC [decoquinate, ethyl-6-decyloxy-7-ethoxy-4-hydroxyquinoline-3-carboxylate]
appearance of blood stage parasites (Plasmodium berghei ANKA): prevent the appearance of blood stage Plasmodium berghei ANKA parasites
causal prophylaxis of parasitemia (P. yoelii): efficacious
